In DBAASP:
≈ marks a conversion by molar mass, not a printed value.

Legend:
Test in all cases: ≥ marks a high value that may be exact or a test limit, other limits are often not marked, values filed in µg/mL are converted to µM
[1] = tested on: Pseudomonas aeruginosa PAO1
Escherichia coli K-12 = tested on: Escherichia coli K-12
[2] = tested on: Pseudomonas aeruginosa PA214
[3] = tested on: Pseudomonas aeruginosa PA330
[4] = tested on: Pseudomonas aeruginosa PA380
Bacillus megaterium Bm11 = tested on: Bacillus megaterium Bm11
[5] = tested on: Staphylococcus aureus 710A
[6] = tested on: Pseudomonas aeruginosa ATCC 27853
[7] = tested on: Salmonella enterica subsp. enterica serovar Typhimurium ATCC 14028
Escherichia coli ML-35 = tested on: Escherichia coli ML-35
[8] = tested on: Micrococcus luteus AB93113
[9] = tested on: Staphylococcus aureus P1389
[10] = tested on: Staphylococcus epidermidis AB208187
[11] = tested on: Bacillus thuringiensis AB92037
[12] = tested on: Staphylococcus aureus P1374
[13] = tested on: Staphylococcus epidermidis AB208188
[14] = tested on: Staphylococcus aureus P1381
[15] = tested on: Escherichia coli ATCC 25922
[16] = tested on: Staphylococcus aureus ATCC 25923
Escherichia coli AB94012 = tested on: Escherichia coli AB94012
[17] = tested on: Pseudomonas aeruginosa ATCC 9027
[18] = tested on: Staphylococcus aureus ATCC 6538
[19] = tested on: Bacillus subtilis AB91021
[20] = tested on: Staphylococcus aureus AB208193
[21] = tested on: Pseudomonas aeruginosa DSM 1117
[22] = tested on: Staphylococcus epidermidis DSM 28319
[23] = tested on: Acinetobacter baumannii AL1851-ΔLpxA
[24] = tested on: Salmonella enterica DSM 17058
[25] = tested on: Citrobacter freundii DSM 30029
[26] = tested on: Staphylococcus aureus DSM 11729
[27] = tested on: Escherichia coli DSM 1103
[28] = tested on: Acinetobacter baumannii ATCC 19606
Shigella sonnei DSM 5570 = tested on: Shigella sonnei DSM 5570
[29] = tested on: Klebsiella pneumoniae DSM 789
[30] = tested on: Acinetobacter baumannii Al1852-ΔLpxD
[31] = tested on: Escherichia coli DH5alpha
[32] = tested on: Staphylococcus aureus NBRC 13276
[33] = tested on: Pseudomonas aeruginosa NBRC 13275
[34] = tested on: Staphylococcus epidermidis NBRC 12298
[35] = tested on: Micrococcus luteus DSM 1790
Escherichia coli BL21AI = tested on: Escherichia coli BL21AI
[36] = tested on: Candida albicans NCYC 1467
Staphylococcus aureus = tested on: Staphylococcus aureus
[37] = tested on: Escherichia coli NCTC 10418
[38] = tested on: Enterococcus faecalis NCTC 12697
[39] = tested on: Klebsiella pneumoniae ATCC 43816
[40] = tested on: Staphylococcus aureus NCTC 10788
[41] = tested on: Staphylococcus aureus ATCC 12493

**Q.** Which results are given for `CC(C)C[C@H](NC(=O)[C@H](C)NC(=O)[C@H](CCCCN)NC(=O)[C@H](CCCCN)NC(=O)[C@H](CCCCN)NC(=O)[C@H](CCCCN)NC(=O)[C@@H](N)CCCCN)C(=O)N[C@@H](Cc1ccccc1)C(=O)N[C@@H](CC(C)C)C(=O)N[C@@H](CCCCN)C(=O)N[C@@H](CC(C)C)C(=O)N[C@@H](Cc1c[nH]c2ccccc12)C(=O)N[C@@H](C)C(=O)N[C@@H](C)C(=O)N[C@@H](Cc1ccccc1)C(=O)N[C@@H](CC(C)C)C(=O)N[C@@H](C)C(N)=O` [KKKKKALFLKLWAAFLA]?
**A.** MIC [1]: 12.5 µM (≈ 25 µg/mL); MIC (Escherichia coli K-12): 3.1 µM (≈ 6.21 µg/mL); MIC [2]: 6.3 µM (≈ 12.6 µg/mL); MIC [3]: 12.5 µM (≈ 25 µg/mL); MIC [4]: ≥ 50 µM

**Q.** `CC[C@H](C)[C@H](NC(=O)[C@H](CCCCN)NC(=O)[C@H](CCCCN)NC(=O)[C@H](CC(C)C)NC(=O)[C@H](CC(C)C)NC(=O)CN)C(=O)N[C@@H](C)C(=O)N[C@@H](CCCCN)C(=O)N[C@@H](CCCCN)C(=O)N[C@@H](C)C(=O)N[C@@H](CCCCN)C(=O)N[C@@H](CCCCN)C(=O)N[C@@H](C)C(=O)N[C@@H](CC(C)C)C(=O)N[C@@H](CCCCN)C(=O)N[C@@H](CCCCN)C(=O)N[C@@H](CC(C)C)C(=O)NCC(=O)N[C@@H](Cc1ccc(O)cc1)C(N)=O` [GLLKKIAKKAKKALKKLGY] was tested. Which MIC (Bacillus megaterium Bm11) did it give?
**A.** Its MIC is 1 µM (≈ 2.1 µg/mL).

**Q.** And the MIC [5]?
**A.** The MIC was 4 µM (≈ 8.39 µg/mL).

**Q.** What about the MIC [6] of the same compound?
**A.** The MIC was 1 µM (≈ 2.1 µg/mL).

**Q.** What about the MIC [7] of the same compound?
**A.** Its MIC is 2 µM (≈ 4.2 µg/mL).

**Q.** And the MIC (Escherichia coli ML-35)?
**A.** Its MIC is 1 µM (≈ 2.1 µg/mL).

**Q.** `CC[C@H](C)[C@H](NC(=O)[C@H](CCCCN)NC(=O)[C@@H](NC(=O)[C@H](C)NC(=O)[C@H](CC(C)C)NC(=O)[C@H](CCCCN)NC(=O)[C@H](Cc1ccccc1)NC(=O)[C@H](CC(C)C)NC(=O)[C@H](Cc1cnc[nH]1)NC(=O)CNC(=O)[C@H](Cc1ccccc1)NC(=O)[C@@H](N)Cc1ccccc1)[C@@H](C)O)C(=O)N[C@H](C(=O)N1CCC[C@H]1C(=O)N[C@@H](CO)C(=O)N[C@@H](CC(C)C)C(=O)N[C@@H](Cc1ccccc1)C(=O)N[C@@H](CCCN=C(N)N)C(=O)O)[C@@H](C)CC` [FFGHLFKLATKIIPSLFR] was tested. Which MIC [8] did it give?
**A.** The MIC was 23.4 µM (≈ 50 µg/mL).

**Q.** What about the MIC [9] of the same compound?
**A.** Its MIC is 2.9 µM (≈ 6.19 µg/mL).

**Q.** What about the MIC [10] of the same compound?
**A.** Its MIC is 2.9 µM (≈ 6.19 µg/mL).

**Q.** And the MIC [11]?
**A.** The MIC was 2.9 µM (≈ 6.19 µg/mL).

**Q.** What about the MIC [12] of the same compound?
**A.** The MIC was 2.9 µM (≈ 6.19 µg/mL).

**Q.** And the MIC [13]?
**A.** The MIC was 2.9 µM (≈ 6.19 µg/mL).

**Q.** And the MIC [14]?
**A.** Its MIC is 1.5 µM (≈ 3.2 µg/mL).

**Q.** And the MIC [15]?
**A.** Its MIC is 5.9 µM (≈ 12.6 µg/mL).

**Q.** And the MIC [16]?
**A.** Its MIC is 2.9 µM (≈ 6.19 µg/mL).

**Q.** What about the MIC (Escherichia coli AB94012) of the same compound?
**A.** The MIC was 11.7 µM (≈ 25 µg/mL).

**Q.** And the MIC [17]?
**A.** Its MIC is 5.9 µM (≈ 12.6 µg/mL).

**Q.** What about the MIC [18] of the same compound?
**A.** The MIC was 1.5 µM (≈ 3.2 µg/mL).

**Q.** And the MIC [19]?
**A.** Its MIC is 2.9 µM (≈ 6.19 µg/mL).

**Q.** What about the MIC [20] of the same compound?
**A.** The MIC was 2.9 µM (≈ 6.19 µg/mL).

**Q.** How did the MIC [21] turn out when `CC[C@H](C)[C@H](NC(=O)[C@H](CC(=O)O)NC(=O)[C@H](Cc1c[nH]c2ccccc12)NC(=O)[C@H](CCCCN)NC(=O)[C@@H]1CCCN1C(=O)[C@H](CC(C)C)NC(=O)[C@H](CCSC)NC(=O)[C@H](Cc1ccc(O)cc1)NC(=O)[C@H](CC(C)C)NC(=O)[C@H](CC(N)=O)NC(=O)[C@@H](NC(=O)CNC(=O)[C@H](CCCCN)NC(=O)[C@H](Cc1ccccc1)NC(=O)[C@H](Cc1ccccc1)NC(=O)[C@H](CCCCN)NC(=O)[C@H](Cc1ccccc1)NC(=O)[C@H](Cc1ccccc1)NC(=O)[C@H](CCCCN)NC(=O)[C@H](Cc1ccccc1)NC(=O)[C@H](Cc1ccccc1)NC(=O)[C@@H](N)CCCCN)[C@@H](C)O)C(=O)N1CCC[C@H]1C(N)=O` [KFFKFFKFFKGTNLYMLPKWDIP] was run?
**A.** Its MIC is 1 µM (≈ 2.94 µg/mL).

**Q.** What about the MIC [22] of the same compound?
**A.** The MIC was 1 µM (≈ 2.94 µg/mL).

**Q.** And the MIC [23]?
**A.** Its MIC is 0.25 µM (≈ 0.736 µg/mL).

**Q.** And the MIC [24]?
**A.** The MIC was 2 µM (≈ 5.89 µg/mL).

**Q.** What about the MIC [25] of the same compound?
**A.** The MIC was 0.5 µM (≈ 1.47 µg/mL).

**Q.** What about the MIC [26] of the same compound?
**A.** Its MIC is ≥ 32 µM.

**Q.** And the MIC [27]?
**A.** Its MIC is 0.5 µM (≈ 1.47 µg/mL).

**Q.** What about the MIC [28] of the same compound?
**A.** The MIC was 0.25 µM (≈ 0.736 µg/mL).

**Q.** What about the MIC (Shigella sonnei DSM 5570) of the same compound?
**A.** Its MIC is 0.25 µM (≈ 0.736 µg/mL).

**Q.** And the MIC [29]?
**A.** The MIC was 0.25 µM (≈ 0.736 µg/mL).

**Q.** And the MIC [30]?
**A.** Its MIC is 0.25 µM (≈ 0.736 µg/mL).

**Q.** `CC[C@H](C)[C@H](NC(=O)CN)C(=O)NCC(=O)N[C@@H](CCCCN)C(=O)N[C@@H](Cc1ccccc1)C(=O)N[C@@H](CC(C)C)C(=O)N[C@@H](Cc1cnc[nH]1)C(=O)N[C@@H](CO)C(=O)N[C@@H](C)C(=O)N[C@@H](CCCCN)C(=O)N[C@@H](CCCCN)C(=O)N[C@@H](Cc1ccccc1)C(=O)NCC(=O)N[C@@H](CCCCN)C(=O)N[C@@H](C)C(=O)N[C@@H](Cc1ccccc1)C(=O)N[C@H](C(N)=O)C(C)C` [GIGKFLHSAKKFGKAFV] was tested. Which MIC [31] did it give?
**A.** The MIC was 3.12 µM (≈ 5.73 µg/mL).

**Q.** What about the MIC [32] of the same compound?
**A.** The MIC was ≥ 50 µM.

**Q.** What about the MIC [33] of the same compound?
**A.** Its MIC is 3.12 µM (≈ 5.73 µg/mL).

**Q.** And the MIC [34]?
**A.** The MIC was 12.5 µM (≈ 22.9 µg/mL).

**Q.** Which results are given for `CC[C@H](C)[C@H](NC(=O)[C@H](CCCN=C(N)N)NC(=O)[C@H](CCCN=C(N)N)NC(=O)[C@@H]1CCCN1C(=O)[C@@H]1CCCN1C(=O)[C@H](CCCCN)NC(=O)[C@@H]1CCCN1C(=O)[C@H](CCCN=C(N)N)NC(=O)[C@@H]1CCCN1C(=O)[C@H](CC(C)C)NC(=O)[C@H](Cc1ccc(O)cc1)NC(=O)[C@@H]1CCCN1C(=O)[C@@H]1CCCN1C(=O)[C@H](CCCCN)NC(=O)[C@H](CC(=O)O)NC(=O)[C@@H](N)C(C)C)C(=O)N[C@@H](Cc1ccc(O)cc1)C(=O)N[C@@H](CC(N)=O)C(=O)O` [VDKPPYLPRPKPPRRIYN]?
**A.** MIC [35]: 7.07 µM (≈ 15.6 µg/mL); MIC (Escherichia coli BL21AI): 7.07 µM (≈ 15.6 µg/mL)

**Q.** How did the MIC [36] turn out when `CC(C)C[C@H](NC(=O)[C@H](C)N)C(=O)N[C@@H](Cc1c[nH]c2ccccc12)C(=O)N[C@@H](CCCCN)C(=O)N[C@@H](CCCCN)C(=O)N[C@@H](CC(C)C)C(=O)N[C@@H](CC(C)C)C(=O)N[C@@H](CCCCN)C(=O)N[C@@H](CCCCN)C(=O)N[C@@H](C)C(N)=O` [ALWKKLLKKA] was run?
**A.** The MIC was ≥ 64 µM.

**Q.** What about the MIC (Staphylococcus aureus) of the same compound?
**A.** Its MIC is > 256 µM.

**Q.** And the MIC [37]?
**A.** Its MIC is 8 µM (≈ 9.58 µg/mL).

**Q.** What about the MIC [38] of the same compound?
**A.** Its MIC is ≥ 256 µM.

**Q.** And the MIC [39]?
**A.** The MIC was ≥ 256 µM.

**Q.** What about the MIC [6] of the same compound?
**A.** The MIC was 32 µM (≈ 38.3 µg/mL).

**Q.** And the MIC [40]?
**A.** Its MIC is ≥ 64 µM.

**Q.** What about the MIC [41] of the same compound?
**A.** Its MIC is ≥ 256 µM.
